Measured values: patent US12054494B2, “Compound with anticancer activity” (KYOWA KIRIN CO., LTD., priority 2018, dated 2024)

Test system: SU-DHL-4 cells
Assay: Inhibitory effect on cell viability (Cell Counting Kit-8)
Assay type: cell-based
Conditions: Homo sapiens, 72 hours culture with test compound, concentration showing 90% inhibition rate of cell viability
Method: Inhibitiory Effect on Cell Viability
SU-DHL-4 cells (Code No. ACC 495, Deutsche Sammlung von Mikroorganismen and Zellkulturen GmbH) were cultured at 37° C. using a carbon dioxide incubator (95% air, 5% CO2) in RPMI1640 medium (Code No. 11875-093, Thermo Fisher Scientific) in which inactivated fetal bovine serum (FBS: Code No. 10099-148, Thermo Fisher Scientific) in an amount to give a final concentration of 10 vol % and penicillin/streptomycin solution (PS: Code No. 15140-122, Thermo Fisher Scientific) in an amount to give a final concentration of 1 vol % were added. The cells were passaged twice a week at a volume of 20-40 mL so as to maintain a cell concentration of 1×10^6 cells/mL or less.
The cultured SU-DHL-4 cells were seeded at 2000 cells/well in a transparent 384-well plate (Code No. 781182, Greiner bio-one). After seeding, the cells were precultured at 37° C. in a carbon dioxide gas incubator for 18 to 25 hours. Next, 1, 0.1 or 0.01 mmol/L DMSO solution of the test compound was prepared and a 9-step dilution series were prepared so that the concentration will be 200 times the final concentration in the RPMI1640 medium containing the above FBS and PS, and 1/200 volume of the dilution series were added to each well. At this time, the final concentration of DMSO was adjusted to be 0.1 vol %. After adding the test compound, the cells were cultured at 37° C. in a carbon dioxide gas incubator for 72 hours. Next, 0.020 mL of Cell Counting Kit-8 (Code No. CK04, DOJINDO) solution diluted 2-fold or 4-fold with phosphate buffered saline (PBS) was added to each well. Color reaction was carried out in a carbon dioxide gas incubator at 37° C. for 2 to 3 hours, and the absorbance at a wavelength of 450 nm was measured using SpectraMax 340PC (Molecular Devices). The inhibition rate of cell viability was calculated by the following formula, and the concentration of the test compound (IC90 value) showing a 90% inhibition rate of cell viability was calculated. Inhibition rate of cell viability (%)=100−(A−B)/(C−B)×100 • A: Absorbance of a well containing test compound • B: Absorbance of a well without addition of cells • C: Absorbance of a well without addition of test compound

Going from CCC(=O)N1c2ccccc2[C@H](Nc2ccc(SCCNC(=O)c3ccc(C4=NCc5nnc(C)n5-c5sc(C)c(C)c54)cc3)cc2)C[C@@H]1C [Compound 14s, N-(2-((4-(((2S,4R)-2-Methyl-1-propionyl-1,2,3,4-tetrahydroquinolin-4-yl)amino)phenyl)thio)ethyl)-4-(2,3,9-trimethyl-6H-thieno[3,2-f][1,2,4]triazolo[4,3-a][1,4]diazepin-4-yl)benzamide] to CCC(=O)N1c2ccccc2[C@H](Nc2ccc(C(=O)NCC#CC(=O)Nc3ccc(C4=NCc5nnc(C)n5-c5sc(C)c(C)c54)cc3)cc2)C[C@@H]1C [Compound 14g, 4-(((2S,4R)-2-Methyl-1-propionyl-1,2,3,4-tetrahydroquinolin-4-yl)amino)-N-(4-oxo-4-((4-(2,3,9-trimethyl-6H-thieno[3,2-f][1,2,4]triazolo[4,3-a][1,4]diazepin-4-yl)phenyl)amino)but-2-yn-1-yl)benzamide], the IC90 falls from 2.2 nM to 0.03 nM (73-fold).

Compared with CCC(=O)N1c2ccccc2[C@H](Nc2ccc(NC(=O)[C@H](C)NC(=O)c3ccc(N[C@@H]4C[C@H](C)N(C(=O)CC)c5ccccc54)cc3)cc2)C[C@@H]1C (relative stereo) [Compound 2d, 4-{[(2S,4R)-2-Methyl-1-propionyl-1,2,3,4-tetrahydroquinolin-4-yl]amino}-N-{(S)-1-[(4-{[(2S*,4R*)-2-methyl-1-propionyl-1,2,3,4-tetrahydroquinolin-4-yl]amino}phenyl)amino]-1-oxopropan-2-yl}benzamide], CCC(=O)N1c2ccccc2[C@H](Nc2ccc(NC(=O)C3CN(C(=O)c4ccc(N[C@@H]5C[C@H](C)N(C(=O)CC)c6ccccc65)cc4)C3)cc2)C[C@@H]1C (relative stereo) [Compound 2h, 1-(4-{[(2S,4R)-2-Methyl-1-propionyl-1,2,3,4-tetrahydroquinolin-4-yl]amino}benzoyl)-N-(4-{[(2S*,4R*)-2-methyl-1-propionyl-1,2,3,4-tetrahydroquinolin-4-yl]amino}phenyl)azetidine-3-carboxamide] is 890-fold lower in IC90: 26.6 nM for the first, 0.03 nM for the second.

Compared with CCC(=O)N1c2ccccc2[C@H](Nc2ccc(NC(=O)c3coc(Nc4ccc(N[C@@H]5C[C@H](C)N(C(=O)CC)c6ccccc65)cc4)n3)cc2)C[C@@H]1C [Compound 5a, N-(4-(((2S,4R)-2-Methyl-1-propionyl-1,2,3,4-tetrahydroquinolin-4-yl)amino)phenyl)-2-((4-(((2S,4R)-2-methyl-1-propionyl-1,2,3,4-tetrahydroquinolin-4-yl)amino)phenyl)amino)oxazole-4-carboxamide], CCC(=O)N1c2ccccc2[C@H](Nc2ccc(NC(=O)CNCC(=O)Nc3ccc(N[C@@H]4C[C@H](C)N(C(=O)CC)c5ccccc54)cc3)cc2)C[C@@H]1C [Compound 5d, 2,2′-Azanediylbis(N-(4-(((2S,4R)-2-methyl-1-propionyl-1,2,3,4-tetrahydroquinolin-4-yl)amino)phenyl)acetamide)] is 3.2-fold lower in IC90: 2.15 nM for the first, 0.67 nM for the second.

Compared with CCC(=O)N1c2ccccc2[C@H](Nc2ccc(NC(=O)CNC(=O)C(F)=C3CCC(N[C@@H]4C[C@H](C)N(C(=O)CC)c5ccccc54)CC3)cc2)C[C@@H]1C (relative stereo) [Compound 15k, 2-Fluoro-2-(4-(((2S*,4R*)-2-methyl-1-propionyl-1,2,3,4-tetrahydroquinolin-4-yl)amino)cyclohexylidene)-N-(2-((4-(((2S,4R)-2-methyl-1-propionyl-1,2,3,4-tetrahydroquinolin-4-yl)amino)phenyl)amino)-2-oxoethyl)acetamide], CCC(=O)N1c2ccccc2[C@H](NCc2ccc(C(=O)N3CC(C(=O)Nc4ccc(N[C@@H]5C[C@H](C)N(C(=O)CC)c6ccccc65)cc4)C3)cc2)C[C@@H]1C (relative stereo) [Compound 10g, 1-(4-((((2S*,4R*)-2-Methyl-1-propionyl-1,2,3,4-tetrahydroquinolin-4-yl)amino)methyl)benzoyl)-N-(4-(((2S,4R)-2-methyl-1-propionyl-1,2,3,4-tetrahydroquinolin-4-yl)amino)phenyl)azetidine-3-carboxamide] is 3.6-fold higher in IC90: 0.32 nM for the first, 1.15 nM for the second.

First: CCC(=O)N1c2ccccc2[C@H](Nc2ccc(CNCc3cn(-c4ccc(N[C@@H]5C[C@H](C)N(C(=O)CC)c6ccccc65)cc4)nn3)cc2)C[C@@H]1C [Compound 5h, 1-((2S,4R)-2-Methyl-4-((4-((((1-(4-(((2S,4R)-2-methyl-1-propionyl-1,2,3,4-tetrahydroquinolin-4-yl)amino)phenyl)-1H-1,2,3-triazol-4-yl)methyl)amino)methyl)phenyl)amino)-3,4-dihydroquinolin-1(2H)-yl)propan-1-one]
Second: CCC(=O)N1c2ccccc2[C@H](Nc2ccc(CNCc3cn(-c4ccc(N[C@@H]5C[C@H](C)N(C(=O)CC)c6ccccc65)nc4)nn3)cc2)C[C@@H]1C (relative stereo) [Compound 10j, 1-((2S,4R)-2-Methyl-4-((4-((((1-(6-(((2S*,4R*)-2-methyl-1-propionyl-1,2,3,4-tetrahydroquinolin-4-yl)amino)pyridin-3-yl)-1H-1,2,3-triazol-4-yl)methyl)amino)methyl)phenyl)amino)-3,4-dihydroquinoline-1(2H)-yl)propan-1-one]
The IC90 of the first is 14-fold lower: 0.12 nM for the first, 1.73 nM for the second.

First: CCC(=O)N1c2ccccc2[C@H](Nc2ccc(NC(=O)CCS(=O)(=O)c3ccc(N[C@@H]4C[C@H](C)N(C(=O)CC)c5ccccc54)cc3)cc2)C[C@@H]1C [Compound 5l, N-(4-(((2S,4R)-2-Methyl-1-propionyl-1,2,3,4-tetrahydroquinolin-4-yl)amino)phenyl)-3-((4-(((2S,4R)-2-methyl-1-propionyl-1,2,3,4-tetrahydroquinolin-4-yl)amino)phenyl)sulfonyl)propanamide]
Second: CCC(=O)N1c2ccccc2[C@H](Nc2ccc(C(=O)NCC(=O)CNC(=O)c3ccc(N[C@@H]4C[C@H](C)N(C(=O)CC)c5ccccc54)cc3)cc2)C[C@@H]1C [Compound 1l, N,N′-(2-Oxopropane-1,3-diyl)bis(4-{[(2S,4R)-2-methyl-1-propionyl-1,2,3,4-tetrahydroquinolin-4-yl]amino}benzamide)]
The IC90 of the first is 920-fold higher: 37 nM for the first, 0.04 nM for the second.

Cc1sc2c(c1C)C(c1ccc(C(=O)NCCCNC(=O)c3ccc(C4=N[C@@H](CC(=O)OC(C)(C)C)c5nnc(C)n5-c5sc(C)c(C)c54)cc3)cc1)=N[C@@H](CC(=O)OC(C)(C)C)c1nnc(C)n1-2 [Compound 1b, Di-tert-butyl 2,2′-[(6S,6′S)-({[propane-1,3-diylbis(azanediyl)]bis(carbonyl)}bis(4,1-phenylene))bis(2,3,9-trimethyl-6H-thieno[3,2-f][1,2,4]triazolo[4,3-a][1,4]diazepine-4,6-diyl)]diacetate] and Cc1sc2c(c1C)C(c1ccc(C(=O)N3CCC(NC(=O)c4ccc(C5=N[C@@H](CC(=O)OC(C)(C)C)c6nnc(C)n6-c6sc(C)c(C)c65)cc4)CC3)cc1)=NCc1nnc(C)n1-2 [Compound 14p, tert-Butyl (S)-2-(2,3,9-trimethyl-4-(4-((1-(4-(2,3,9-trimethyl-6H-thieno[3,2-f][1,2,4]triazolo[4,3-a][1,4]diazepin-4-yl)benzoyl)piperidin-4-yl)carbamoyl)phenyl)-6H-thieno[3,2-f][1,2,4]triazolo[4,3-a][1,4]diazepin-6-yl)acetate] are within 1.5-fold of each other in IC90: 1.78 nM for the first, 1.27 nM for the second.

First: CCC(=O)N1c2ccccc2[C@H](NCCCCCCCCC(=O)Nc2ccc(N[C@@H]3C[C@H](C)N(C(=O)CC)c4ccccc43)cc2)C[C@@H]1C (relative stereo) [Compound 12g, 9-(((2S*,4R*)-2-Methyl-1-propionyl-1,2,3,4-tetrahydroquinolin-4-yl)amino)-N-(4-(((2S,4R)-2-methyl-1-propionyl-1,2,3,4-tetrahydroquinolin-4-yl)amino)phenyl)nonanamide]
Second: CCC(=O)N1c2ccccc2[C@H](Nc2ccc(C(=O)N3CCn4cc(-c5ccc(N[C@@H]6C[C@H](C)N(C(=O)CC)c7ccccc76)cc5)nc4C3)cc2)C[C@@H]1C [Compound 3f, 1-[(2S,4R)-2-Methyl-4-({4-[2-(4-{[(2S,4R)-2-methyl-1-propionyl-1,2,3,4-tetrahydroquinolin-4-yl]amino}phenyl)-5,6,7,8-tetrahydroimidazo[1,2-a]pyrazine-7-carbonyl]phenyl}amino)-3,4-dihydroquinolin-1(2H)-yl]propan-1-one]
The IC90 of the first is 94-fold higher: 31.1 nM for the first, 0.33 nM for the second.

CCC(=O)N1c2ccccc2[C@H](Nc2ccc(NC(=O)COCC(=O)Nc3ccc(C4=NCc5nnc(C)n5-c5sc(C)c(C)c54)cc3)cc2)C[C@@H]1C [Compound 14d, N-(4-(((2S,4R)-2-Methyl-1-propionyl-1,2,3,4-tetrahydroquinolin-4-yl)amino)phenyl)-2-(2-oxo-2-((4-(2,3,9-trimethyl-6H-thieno[3,2-f][1,2,4]triazolo[4,3-a][1,4]diazepin-4-yl)phenyl)amino)ethoxy)acetamide] gave an IC90 of 0.16 nM.
